Like-named read-outs stand apart in the source and are kept apart here.
Columns and labels:
[1] = Solubility of dutasteride: powder suspended in water at the supersaturation concentration of 1 mg/ml, 0.45 um filtering, HPLC; type: physicochemical; conditions: raw material of dutasteride itself, compared in Experimental Example 4
Experimental: Alpha-cyclodextrin, beta-cyclodextrin, gamma-cyclodextrin and hydroxypropyl-beta-cyclodextrin were dissolved in water, respectively, and dutasteride was dissolved in the same amount of ethanol. Then, the two liquids were mixed to form an inclusion complex. In this case, the weight ratio of dutasteride and cyclodextrin was 1:100. The inclusion complex of cyclodextrin and dutasteride in the form of powder was obtained from the mixture solution of ethanol and distilled water through a drying process, followed by suspension in water at the supersaturation concentration of 1 mg/ml. The solubility was measured with HPLC after 0.45 um filtering. The analysis conditions and the result of solubility are as shown below.
• Column: Zobrax SB-Phenyl (150 mm x 3.0 mm, 3.5 um) or a column equivalent thereto • Mobile phase: Mixture liquid of acetonitrile and purified water (55:45, v/v) • Wavelength of detection: UV, 240 nm • Amount of injection: 50 uL • Flow rate: 0.5 mL/min
Gamma-cyclodextrin was dissolved in water, and dutasteride, polyvinyl pyrrolidone and gelucire (macrogol glyceride) were dissolved in the same amount of ethanol. Then, the experiment was performed as in Experimental Example 1 to evaluate the solubility of dutasteride.

[2] = cited from earlier work

Solubility of dutasteride [1]: not detected
Structure (SMILES): C[C@]12C=CC(=O)N[C@@H]1CC[C@@H]1[C@@H]2CC[C@]2(C)[C@@H](C(=O)Nc3cc(C(F)(F)F)ccc3C(F)(F)F)CC[C@@H]12 [dutasteride]
Solubility of dutasteride ([2]; in ethanol): 44 mg/mL
Solubility of dutasteride ([2]; in methanol): 64 mg/mL
Solubility of dutasteride ([2]; in polyethylene glycol 400): 3 mg/mL
Solubility of dutasteride ([2]; in water): poorly soluble

Reference: patent EP3254699B1, “SOLID DISPERSION CONTAINING DUTASTERIDE, AND COMPOSITION CONTAINING SAME” (Whanin Pharmaceutical. Co., Ltd., priority 2015, dated 2016)
